Series [1] deals with T1, NMDA glutamate receptors NR1/NR2B encoded by the human GRIN1 and GRIN2B genes (Homo sapiens, UniProt Q05586+Q13224).
T1 construct: expressed in transfected cells
Description: IonWorks Barracuda automated patch clamp, inhibition of NR1/NR2B receptors in HEK293 cells. The class given is cell-based. The settings on record: for pIC50: co-application with EC50 L-glutamate, −40 mV, 8-point concentration-response; for Effect on NR1/NR2B glutamate receptors (in words): patch clamp. As for the experimental part:
Compounds were tested for inhibition of NMDA receptors using NMDA glutamate receptors NR1/NR2B encoded by the human GRIN1 and GRIN2B genes, expressed in HEK293 cells (originally from ATCC, Manassas, VA). Cells were maintained in tissue culture incubators, and stocks were maintained in cryogenic storage. Cells used for electrophysiology were plated in 150-mm plastic culture dishes. HEK293 cells were transfected with the appropriate ion channel or receptor cDNA(s) encoding NR1 and NR2B. Stable transfectants were selected using the G418 and Zeocin™-resistance genes incorporated into the expression plasmid. Selection pressure was maintained with G418 and Zeocin™ in the culture medium. Cells were cultured in Dulbecco's Modified Eagle Medium/Nutrient Mixture F-12 (D-MEM/F-12) supplemented with 10% fetal bovine serum, 100 U/mL penicillin G sodium, 100 μg/mL streptomycin sulfate, 100 μg/mL Zeocin™, 5 μg/mL blasticidin, and 500 μg/mL G418.
Test compounds were evaluated in 8-point concentration-response format (8 replicate wells/concentration). All test and control solutions contained 0.3% DMSO. The test article formulations were loaded in a 384-well plate using an automated liquid handling system (SciClone ALH3000, Caliper LifeScienses).
The effects of the test compounds were evaluated using the IonWorks® Barracuda™ Automated Patch Clamp System. Intracellular solution contained 50 mM CsCl, 90 mM CsF, 2 mM MgCl2, 5 mM EGTA, and 10 mM HEPES, pH 7.2. This solution was prepared in batches and stored refrigerated. In preparation for a recording session, the intracellular solution was loaded into the intracellular compartment of the PPC planar electrode. Extracellular solution (137 mM NaCl; 1.0 mM KCl; 5 mM CaCl2); 10 mM HEPES; 10 mM glucose; pH 7.4. Patch clamp measurements were made with a holding potential of −70 mV, and the potential during compound application was −40 mV. Extracellular buffer was loaded into the PPC plate wells (11 μL per well). Cell suspension was then pipetted into the wells (9 μL per well) of the PPC planar electrode. Whole-cell recording configuration was established via patch perforation with membrane currents recorded by on-board patch clamp amplifiers. […] The application consisted of two additions of 20 μL test solution containing antagonists at 10 μL/s (2 second total application time). First addition of 2× concentrated articles were preapplied for 5 minutes before the second addition of 1× concentrated articles. Data acquisition was performed via the IonWorks® Barracuda™ software, and data was analyzed using Microsoft Excel (Microsoft Corp., Redmond, WA). Concentration-response data was fitted to a Hill equation of the following form: RESPONSE=Base+[(Max−Base)/(1+(xhalf/x)^rate)] where Base is the response at low concentrations of test article, Max is the maximum response at high concentrations, xhalf is the EC50, or IC50, the concentration of test article producing either half-maximal activation or inhibition, and rate is the Hill coefficient. Nonlinear least squares fits were made assuming a simple binding model. Fits were weighted by the standard deviation. No assumptions about the fit parameters were made; the fit parameters were determined by the algorithm.
On the technique in general: Patch clamp records ionic current or voltage across a cell membrane.

The conditions of series [2]: 7 days of infusion, cited from earlier work.
Setting [3] is: read-out: Steady state current IC50.

What is called pIC50 is the negative decadic logarithm of the IC50, by convention in mol/L.

pIC50: −log10 of the molar value. Read-outs that look alike come from different tables or passages of the source.

T1 sequence (Q13224 27-1484, other chains not shown): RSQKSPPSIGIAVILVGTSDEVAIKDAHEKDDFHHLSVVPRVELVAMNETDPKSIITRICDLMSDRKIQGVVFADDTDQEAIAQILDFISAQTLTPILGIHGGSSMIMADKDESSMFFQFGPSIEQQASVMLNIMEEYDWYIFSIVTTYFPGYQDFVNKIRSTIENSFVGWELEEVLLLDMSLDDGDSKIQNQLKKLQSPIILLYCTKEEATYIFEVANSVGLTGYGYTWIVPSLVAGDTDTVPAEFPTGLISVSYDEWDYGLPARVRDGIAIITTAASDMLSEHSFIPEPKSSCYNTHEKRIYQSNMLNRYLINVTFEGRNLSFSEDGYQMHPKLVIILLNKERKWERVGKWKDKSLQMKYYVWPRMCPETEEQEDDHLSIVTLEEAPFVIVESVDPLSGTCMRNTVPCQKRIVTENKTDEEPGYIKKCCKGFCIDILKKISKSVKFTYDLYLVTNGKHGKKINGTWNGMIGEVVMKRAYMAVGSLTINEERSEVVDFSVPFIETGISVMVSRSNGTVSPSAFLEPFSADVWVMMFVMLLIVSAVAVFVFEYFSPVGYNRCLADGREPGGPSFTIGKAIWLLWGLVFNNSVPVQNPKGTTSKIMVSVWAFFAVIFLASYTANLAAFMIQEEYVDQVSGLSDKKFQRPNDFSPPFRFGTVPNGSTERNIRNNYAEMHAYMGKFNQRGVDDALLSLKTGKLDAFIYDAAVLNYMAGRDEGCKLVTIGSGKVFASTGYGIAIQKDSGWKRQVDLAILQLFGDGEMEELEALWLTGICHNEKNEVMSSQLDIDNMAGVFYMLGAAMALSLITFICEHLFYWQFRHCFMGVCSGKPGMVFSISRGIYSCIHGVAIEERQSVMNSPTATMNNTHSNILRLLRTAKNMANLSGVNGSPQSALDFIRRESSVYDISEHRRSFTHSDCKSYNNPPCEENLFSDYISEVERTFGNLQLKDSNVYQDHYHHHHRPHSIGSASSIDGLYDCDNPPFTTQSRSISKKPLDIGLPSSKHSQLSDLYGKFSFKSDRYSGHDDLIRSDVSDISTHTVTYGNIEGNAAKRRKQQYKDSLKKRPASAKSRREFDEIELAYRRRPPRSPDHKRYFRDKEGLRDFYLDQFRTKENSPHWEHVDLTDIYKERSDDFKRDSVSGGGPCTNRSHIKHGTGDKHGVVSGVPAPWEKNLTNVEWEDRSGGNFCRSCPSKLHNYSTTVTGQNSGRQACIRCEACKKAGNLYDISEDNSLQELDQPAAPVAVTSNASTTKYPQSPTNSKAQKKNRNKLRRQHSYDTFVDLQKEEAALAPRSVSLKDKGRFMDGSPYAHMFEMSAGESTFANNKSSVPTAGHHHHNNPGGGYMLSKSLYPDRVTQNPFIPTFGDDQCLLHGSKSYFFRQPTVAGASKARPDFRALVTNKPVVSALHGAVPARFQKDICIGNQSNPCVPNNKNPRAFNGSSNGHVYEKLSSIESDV

On to `CC12CC3(C)CC(CN)(C1)CC(CO[N+](=O)[O-])(C2)C3` [Cmpd 1], for which the negative-log IC50 (pIC50) in series [1] (read-out: Peak current IC50) is 5.34; in series [1] (setting [3]), 5.58. Taken in the same sequence, the figures for `NCC1(c2cccc(O[N+](=O)[O-])c2)C2CC3CC(C2)CC1C3` (stereo not drawn) [Cmpd 2] were 4.14 and 4.32. `CCC(O[N+](=O)[O-])C12CC3(C)CC(C)(CC(CCN)(C3)C1)C2` (stereo not drawn) [Cmpd 3]: the pIC50 in series [1] (read-out: Peak current IC50) is 5.10; in series [1] (setting [3]) it was 5.29. The matching figures for `NCC1(c2cccc(OCCCO[N+](=O)[O-])c2)C2CC3CC(C2)CC1C3` (stereo not drawn) [Cmpd 4]: 4.45 and 4.47. The matching figures for `CC12CC3CC(CN)(C1)CC(O[N+](=O)[O-])(C3)C2` (stereo not drawn) [Cmpd 5]: 4.95 and 5.14. Turning to `N[C@@H](CCC(=O)O)C(=O)O` [Glutamate CRC, L-glutamate, reference compound], the “Effect on NR1/NR2B glutamate receptors (in words)” value in series [1] was “stimulated the receptors”. In the case of `CC12CC3CC(C)(C1)CC(N)(C3)C2.Cl` [Memantine-HCl, Memantine, reference compound], the “Effect on NR1/NR2B glutamate receptors (in words)” value in series [1] is on record as “produced inhibition of the receptors”. Besides, the “whole brain concentration higher than free concentration in serum” value in series [2] (20 mg/kg/day) is 44 fold. Regarding `CCC12CC3CC(N)(C1)CC(CO[N+](=O)[O-])(C3)C2` (stereo not drawn) [NM-004, reference compound], the pIC50 is 4.59 in series [1] (read-out: Peak current IC50) and 4.68 in series [1] (setting [3]). Taken in the same sequence, the figures for `CCC12CC3(N)CC(CC)(C1)CC(O[N+](=O)[O-])(C3)C2` [YQW-036, Nitrosynapsin, reference compound] were 5.00 and 5.17. Take `NC12CC3CC(CC(C3)C1)C2` [amantadine]: the “whole brain concentration higher than free concentration in serum” value in series [2] (100 mg/kg/day) was 16 fold.
